Results taken from ChEMBL document CHEMBL1157012, “Neural computational prediction of oral drug absorption based on CODES 2D descriptors” (Eur J Med Chem, 2010).

Test: Human intestinal absorption in po dosed human
Conditions: in vivo

| SMILES | Fa [%] |
| --- | --- |
| COc1ccc(CCN(C)CCCC(C#N)(c2cc(OC)c(OC)c(OC)c2)C(C)C)cc1OC (configuration not stated) [GALLOPAMIL] | 100 |
| CNC(=C[N+](=O)[O-])NCCSCc1csc(CN(C)C)n1 [NIZATIDINE] | 90 |
| CCOC(=O)C1=C(C)NC(C)=C(C(=O)OC)C1c1cccc([N+](=O)[O-])c1 (configuration not stated) [NITRENDIPINE] | 88 |
| O=C(C1CCCCC1)N1CC(=O)N2CCc3ccccc3C2C1 (configuration not stated) [PRAZIQUANTEL] | 100 |
| COc1ccc2c3c1O[C@H]1[C@@H](O)CC[C@H]4[C@@H](C2)N(C)CC[C@@]341 [DIHYDROCODEINE] | 88 |
| C[C@]12C=CC(=O)C=C1CC[C@@H]1[C@@H]2[C@@H](O)C[C@@]2(C)[C@H]1CC[C@]2(O)C(=O)CO [PREDNISOLONE] | 99 |
| CN1C(C(=O)Nc2ccccn2)=C(O)c2sccc2S1(=O)=O [TENOXICAM] | 100 |
| CC(C)(C)NCC(O)c1ccc(O)c(CO)n1 (configuration not stated) [PIRBUTEROL] | 60 |
| NC(=O)c1ncn([C@@H]2O[C@H](CO)[C@@H](O)[C@H]2O)n1 [RIBAVIRIN] | 33 |
| OC[C@H]1O[C@@H](O[C@@H]2[C@@H](CO)O[C@](O)(CO)[C@H]2O)[C@H](O)[C@@H](O)[C@H]1O [LACTULOSE] | 1 |
| C#C[C@]1(O)CC[C@H]2[C@@H]3CCc4cc(O)ccc4[C@H]3CC[C@@]21C [ETHINYL ESTRADIOL] | 100 |
| CC(C)NCC(O)COc1ccc(CCOCC2CC2)cc1 (configuration not stated) [BETAXOLOL] | 90 |
| OC[C@@H](O)[C@@H](O)[C@H](O)[C@H](O)CO [MANNITOL] | 16 |
| Nc1nnc(-c2cccc(Cl)c2Cl)c(N)n1 [LAMOTRIGINE] | 98 |
| C[C@H](N)Cc1ccccc1 [DEXTROAMPHETAMINE] | 90 |
| COc1ccccc1N1CCN(CCCNc2cc(=O)n(C)c(=O)n2C)CC1 | 78 |
| CN1C(C(=O)Nc2nccs2)=C(O)c2ccccc2S1(=O)=O [SUDOXICAM] | 100 |
| CCc1[nH]c(=O)[nH]c1C(=O)c1ccncc1 [PIROXIMONE] | 80 |
| CC(C)(C)NC[C@H](O)COc1nsnc1N1CCOCC1 [TIMOLOL] | 95 |
| Cn1c(=O)c2c(ncn2C)n(C)c1=O [CAFFEINE] | 100 |
| Cn1c(=O)c2[nH]cnc2n(C)c1=O.O [THEOPHYLLINE] | 100 |
| O=C(NCC1CCCCN1)c1cc(OCC(F)(F)F)ccc1OCC(F)(F)F (configuration not stated) [FLECAINIDE] | 81 |
| C#C[C@]1(O)CC[C@H]2[C@@H]3CCC4=CC(=O)CC[C@@H]4[C@H]3CC[C@@]21CC [LEVONORGESTREL] | 100 |
| NCC1(CC(=O)O)CCCCC1 [GABAPENTIN] | 59 |
| C[C@H]1[C@H](NC(=O)/C(=N\OC(C)(C)C(=O)O)c2csc(N)n2)C(=O)N1S(=O)(=O)O [AZTREONAM] | 1 |

| SMILES | Fa [%] |
| --- | --- |
| C[C@H](N[C@@H](CCc1ccccc1)C(=O)O)C(=O)N1CCC[C@H]1C(=O)O [ENALAPRILAT ANHYDROUS] | 25 |
| CN1C2CCCC1CC(NC(=O)c1nn(C)c3ccccc13)C2 (configuration not stated) [GRANISETRON] | 100 |
| COc1cc(Cc2cnc(N)nc2N)cc(OC)c1OC [TRIMETHOPRIM] | 97 |
| CN(C)C(=O)OC1N=C(c2ccccc2)c2cc(Cl)ccc2N(C)C1=O (configuration not stated) [CAMAZEPAM] | 100 |
| CN(C)CCCN1c2ccccc2CCc2ccccc21 [IMIPRAMINE] | 100 |
| O=C(O)c1cc(/N=N/c2ccc(S(=O)(=O)Nc3ccccn3)cc2)ccc1O [SULFASALAZINE] | 59 |
| CC(C)NCC(O)COc1ccc(CCNC(=O)NC(C)C)cc1 (configuration not stated) [PAFENOLOL] | 29 |
| CN(CCCCCCN(C)C(=O)Oc1ccc[n+](C)c1)C(=O)Oc1ccc[n+](C)c1.[Br-].[Br-] [DISTIGMINE BROMIDE] | 8 |
| NC(N)=Nc1nc(CSCCC(N)=NS(N)(=O)=O)cs1 [FAMOTIDINE] | 28 |
| Cc1c(OCC(F)(F)F)ccnc1C[S+]([O-])c1nc2ccccc2[nH]1 (configuration not stated) [LANSOPRAZOLE] | 85 |
| Nc1cc(-c2ccncc2)c[nH]c1=O [INAMRINONE] | 93 |
| CC(C)(C)NCC(O)COc1cccc2c1CC(O)C(O)C2 (configuration not stated) [NADOLOL] | 57 |
| COP(=O)(OC)OC(c1ccc(Cl)cc1)P(=O)(OC)OC (configuration not stated) [MIFOBATE] | 81 |
| N=C(N)N/N=C/c1c(Cl)cccc1Cl [GUANABENZ] | 80 |
| CC1(C)S[C@@H]2[C@H](NC(=O)C(C(=O)Oc3ccccc3)c3ccccc3)C(=O)N2[C@H]1C(=O)O (some centres not stated) [CARBENICILLIN PHENYL] | 99 |
| Cc1cnc(NC(=O)C2=C(O)c3ccccc3S(=O)(=O)N2C)s1 [MELOXICAM] | 90 |
| CC(=O)S[C@@H]1CC2=CC(=O)CC[C@]2(C)[C@H]2CC[C@@]3(C)[C@@H](CC[C@@]34CCC(=O)O4)[C@H]12 [SPIRONOLACTONE] | 73 |
| C[C@]12CC[C@H]3[C@@H](CCC4=CC(=O)CC[C@@]43C)[C@@H]1CC[C@@H]2O [TESTOSTERONE] | 100 |
| C[C@@H]1O[C@@H]1P(=O)(O)O [FOSFOMYCIN] | 31 |
| O=C(O)c1ccccc1O [SALICYLIC ACID] | 100 |
| C[C@@H]1O[C@@H](O[C@H]2C[C@@H](O)[C@]3(CO)[C@H]4[C@H](O)C[C@]5(C)[C@@H](C6=CC(=O)OC6)CC[C@]5(O)[C@@H]4CC[C@]3(O)C2)[C@H](O)[C@H](O)[C@H]1O [OUABAIN] | 1 |
| O=C([O-])c1cc(=O)c2c(OCC(O)COc3cccc4oc(C(=O)[O-])cc(=O)c34)cccc2o1.[Na+].[Na+] [CROMOLYN SODIUM] | 4 |
| Cc1cccc(Nc2ccncc2S(=O)(=O)NC(=O)NC(C)C)c1 [TORSEMIDE] | 96 |
| Nc1ccn([C@@H]2CS[C@H](CO)O2)c(=O)n1 [LAMIVUDINE] | 85 |
| CC1(C)S[C@@H]2[C@H](NC(=O)COc3ccccc3)C(=O)N2[C@H]1C(=O)O [PENICILLIN V] | 59 |

| SMILES | Fa [%] |
| --- | --- |
| NC(=O)OCC(COC(N)=O)c1ccccc1 [FELBAMATE] | 90 |
| NCCCC[C@H](N[C@@H](CCc1ccccc1)C(=O)O)C(=O)N1CCC[C@H]1C(=O)O [LISINOPRIL ANHYDROUS] | 28 |
| NCCCC(N)(C(=O)O)C(F)F (configuration not stated) [EFLORNITHINE] | 55 |
| Cc1ccc(S(=O)(=O)NC(=O)NN2CC3CCCC3C2)cc1 (configuration not stated) [GLICLAZIDE] | 65 |
| N[C@H](Cc1ccccc1)C(=O)N1CCC[C@H]1C(=O)O | 100 |
| CCC(=O)C(CC(C)N(C)C)(c1ccccc1)c1ccccc1 (configuration not stated) [METHADONE] | 80 |
| CC(C)(C)NCC(O)c1cc(O)cc(O)c1 (configuration not stated) [TERBUTALINE] | 62 |
| CC(CCc1ccccc1)NCC(O)c1ccc(O)c(C(N)=O)c1 (configuration not stated) [LABETALOL] | 95 |
| Clc1cccc(Cl)c1N=C1NCCN1 [CLONIDINE] | 95 |
| N[C@@H]1CON=C1O [CYCLOSERINE] | 73 |
| COc1cc(N)c(Cl)cc1C(=O)NC1CCN(CCCOc2ccc(F)cc2)CC1OC (configuration not stated) [CISAPRIDE] | 100 |
| NCC(=O)O [GLYCINE] | 100 |
| Cc1ccc(/C(=C\CN2CCCC2)c2cccc(/C=C/C(=O)O)n2)cc1 [ACRIVASTINE] | 88 |
| COc1nc(C)nc(Cl)c1N=C1NCCN1 [MOXONIDINE] | 87 |
| CCN(CC)CCC1(c2ccccc2)CCC(=O)NC1=O (configuration not stated) [PHENGLUTARIMIDE] | 100 |
| CC1COc2c(N3CCN(C)CC3)c(F)cc3c(=O)c(C(=O)O)cn1c23 (configuration not stated) [OFLOXACIN] | 100 |
| CN(Cc1cnc2nc(N)nc(N)c2n1)c1ccc(C(=O)N[C@@H](CCC(=O)O)C(=O)O)cc1 [METHOTREXATE] | 70 |
| Cc1cccc(C)c1NC(=O)NCCCNC(C)C | 71 |
| CNS(=O)(=O)Cc1ccc2[nH]cc(CCN(C)C)c2c1 | 57 |
| O=c1[nH]c2ccccc2n1CCCN1CCN(C(c2ccccc2)c2ccccc2)CC1 [OXATOMIDE] | 100 |
| CCOC(=O)[C@H](CCc1ccccc1)N[C@@H](C)C(=O)N1CCC[C@H]1C(=O)O | 66 |
| CN(C)CCOc1ccc(/C(=C(/CCCl)c2ccccc2)c2ccccc2)cc1 [TOREMIFENE] | 100 |
| NC(=O)N1C(=O)/C(=C(\O)c2cccs2)c2cc(Cl)ccc21 [TENIDAP] | 89 |
| CN1C(C(=O)Nc2ccccn2)=C(O)c2sc(Cl)cc2S1(=O)=O [LORNOXICAM] | 100 |
| COCC(=O)O[C@]1(CCN(C)CCCc2nc3ccccc3[nH]2)CCc2cc(F)ccc2[C@@H]1C(C)C [MIBEFRADIL] | 69 |

| SMILES | Fa [%] |
| --- | --- |
| CC1=C(CC(=O)O)c2cc(F)ccc2/C1=C\c1ccc([S+](C)[O-])cc1 (configuration not stated) | 90 |
| COc1cc2nc(N3CCN(C(=O)c4ccco4)CC3)nc(N)c2cc1OC [PRAZOSIN] | 86 |
| COc1cc2nc(N3CCN(C(=O)C4CCCO4)CC3)nc(N)c2cc1OC (configuration not stated) [TERAZOSIN] | 90 |
| C[C@](N)(Cc1ccc(O)c(O)c1)C(=O)O [METHYLDOPA] | 41 |
| CNC(=O)c1c(I)c(NC(C)=O)c(I)c(C(=O)[O-])c1I.[Na+] [IOTHALAMATE SODIUM] | 2 |
| O=C1NC(=O)C(c2ccccc2)(c2ccccc2)N1 [PHENYTOIN] | 90 |
| CCCC(CCC)C(=O)[O-].[Na+] [VALPROATE SODIUM] | 100 |
| COc1cc(C)c([S+](C)[O-])cc1OC (configuration not stated) [TOLMESOXIDE] | 98 |
| NS(=O)(=O)c1cc2c(cc1Cl)NCNS2(=O)=O [HYDROCHLOROTHIAZIDE] | 69 |
| CC(C(=O)O)c1cccc(C(=O)c2ccccc2)c1 (configuration not stated) [KETOPROFEN] | 92 |
| CC(=O)Oc1ccccc1C(=O)O [ASPIRIN] | 82 |
| CNCCCN1c2ccccc2CCc2ccccc21 [DESIPRAMINE] | 100 |
| CCN1CCCC1CNC(=O)c1cc(S(N)(=O)=O)ccc1OC (configuration not stated) [SULPIRIDE] | 44 |
| Cc1nnc2n1-c1ccc(Cl)cc1C(c1ccccc1)=NC2 [ALPRAZOLAM] | 90 |
| O=C1NS(=O)(=O)c2ccccc21 [SACCHARIN] | 88 |
| O=CN(O)CCCP(=O)(O)O [FOSMIDOMYCIN] | 30 |
| N[C@@H](Cc1ccc(O)c(O)c1)C(=O)O [LEVODOPA] | 86 |
| CC(=O)Nc1ccc(O)cc1 [ACETAMINOPHEN] | 80 |
| C[C@H]1C[C@@H]2[C@H]([C@@H](O)C[C@@]3(C)[C@H]2CC[C@]3(O)C(=O)CO)[C@@]2(C)C=CC(=O)C=C12 [METHYLPREDNISOLONE] | 82 |
| COc1cccc(C(=O)CCN[C@@H](C)[C@H](O)c2ccccc2)c1 [OXYFEDRINE] | 84 |
| CN1C(C(=O)Nc2ccccn2)=C(O)c2ccccc2S1(=O)=O [PIROXICAM] | 100 |
| CCCc1nc2c(C)cc(-c3nc4ccccc4n3C)cc2n1Cc1ccc(-c2ccccc2C(=O)O)cc1 | 90 |
